ChEMBL document CHEMBL5584203, “Discovery of sinomenine/8-Bis(benzylthio)octanoic acid hybrids as potential anti-leukemia drug candidate via mitochondrial pathway” (Bioorg Med Chem Lett, 2024)

Tests used:
MCF7 = assay: Antiproliferative activity against human MCF7 cells by CCK8 assay; assay type: functional, cell-based
K562 = assay: Antiproliferative activity against human K562 cells by CCK8 assay; assay type: functional, cell-based
MDA-MB-231 = assay: Antiproliferative activity against human MDA-MB-231 cells by CCK8 assay; assay type: functional, cell-based
[1] = Cytotoxicity against human PBMCs by CCK8 assay; assay type: toxicity, cell-based, PBMC
PANC-1 = assay: Antiproliferative activity against human PANC-1 cells by CCK8 assay; assay type: functional, cell-based
HepG2 = assay: Antiproliferative activity against human HepG2 cells by CCK8 assay; assay type: functional, cell-based
A549 = assay: Antiproliferative activity against human A549 cells by CCK8 assay; assay type: functional, cell-based

Work on `COC1=CC2[C@@H]3Cc4c(Br)cc(OC)c(OCCCOC(=O)CCCCC(CCSCc5ccccc5)SCc5ccccc5)c4[C@]2(CCN3C)CC1=O` (some centres not stated) yielded an IC50 (MCF7) greater than 50 µM, an IC50 (K562) of 24.3 µM and an IC50 (MDA-MB-231) greater than 50 µM. The IC50 [1] was greater than 50 µM, the IC50 (PANC-1) was greater than 50 µM and the IC50 (HepG2) was greater than 50 µM. It also gave an IC50 (A549) greater than 50 µM.
In the case of `COC1=CC2[C@@H]3Cc4c(Br)cc(OC)c(OC(=O)CCCCC(CCSCc5ccccc5)SCc5ccccc5)c4[C@]2(CCN3C)CC1=O` (some centres not stated), the IC50 (MCF7) is reported as greater than 50 µM, the IC50 (K562) is reported as 17.4 µM and the IC50 (MDA-MB-231) is reported as greater than 50 µM. It also gave an IC50 [1] greater than 50 µM, an IC50 (PANC-1) greater than 50 µM and an IC50 (HepG2) greater than 50 µM. The IC50 (A549) was greater than 50 µM.
Molecule `COC1=CC2[C@@H]3Cc4c(Br)cc(OC)c(OCCCCCCOC(=O)CCCCC(CCSCc5ccccc5)SCc5ccccc5)c4[C@]2(CCN3C)CC1=O` (some centres not stated) has an IC50 (MCF7) greater than 50 µM, an IC50 (K562) greater than 50 µM and an IC50 (MDA-MB-231) greater than 50 µM. It also gave an IC50 [1] greater than 50 µM, an IC50 (PANC-1) greater than 50 µM and an IC50 (HepG2) greater than 50 µM. For the same molecule, the IC50 (A549) was greater than 50 µM.
Work on `COC1=C[C@@H]2[C@@H]3Cc4ccc(OC)c(O)c4[C@]2(CCN3C)CC1=O` [SINOMENINE] yielded an IC50 (MCF7) greater than 50 µM, an IC50 (K562) of 37.2 µM and an IC50 (MDA-MB-231) greater than 50 µM. It also gave an IC50 (PANC-1) greater than 50 µM, an IC50 (HepG2) greater than 50 µM and an IC50 (A549) greater than 50 µM.
`COC1=CC2[C@@H]3Cc4ccc(OC)c(OCCCCOC(=O)CCCCC(CCSCc5ccccc5)SCc5ccccc5)c4[C@]2(CCN3C)CC1=O` (some centres not stated) gave an IC50 (MCF7) of 46.9 µM, an IC50 (K562) of 5.32 µM and an IC50 (MDA-MB-231) greater than 50 µM. It also gave an IC50 [1] greater than 50 µM, an IC50 (PANC-1) greater than 50 µM and an IC50 (HepG2) of 36.6 µM. The IC50 (A549) was 28.6 µM.
In the case of `COC1=CC2[C@@H]3Cc4c(Cl)cc(OC)c(OCCCCOC(=O)CCCCC(CCSCc5ccccc5)SCc5ccccc5)c4[C@]2(CCN3C)CC1=O` (some centres not stated), the IC50 (MCF7) is reported as greater than 50 µM, the IC50 (K562) is reported as 17.8 µM and the IC50 (MDA-MB-231) is reported as greater than 50 µM. For the same molecule, the IC50 [1] was greater than 50 µM, the IC50 (PANC-1) was greater than 50 µM and the IC50 (HepG2) was greater than 50 µM. For the same molecule, the IC50 (A549) was greater than 50 µM.
`COC1=CC2[C@@H]3Cc4c(Cl)cc(OC)c(OCCCCCOC(=O)CCCCC(CCSCc5ccccc5)SCc5ccccc5)c4[C@]2(CCN3C)CC1=O` (some centres not stated) gave an IC50 (MCF7) greater than 50 µM, an IC50 (K562) of 19.5 µM and an IC50 (MDA-MB-231) greater than 50 µM. It also gave an IC50 [1] greater than 50 µM, an IC50 (PANC-1) greater than 50 µM and an IC50 (HepG2) greater than 50 µM. For the same molecule, the IC50 (A549) was greater than 50 µM.
`COC1=CC2[C@@H]3Cc4ccc(OC)c(OCCCOC(=O)CCCCC(CCSCc5ccccc5)SCc5ccccc5)c4[C@]2(CCN3C)CC1=O` (some centres not stated) gave an IC50 (MCF7) of 48.4 µM, an IC50 (K562) of 4.16 µM and an IC50 (MDA-MB-231) greater than 50 µM. The IC50 [1] was greater than 50 µM, the IC50 (PANC-1) was greater than 50 µM and the IC50 (HepG2) was 37 µM. For the same molecule, the IC50 (A549) was 17.7 µM.
`COC1=CC2[C@@H]3Cc4c(Cl)cc(OC)c(OC(=O)CCCCC(CCSCc5ccccc5)SCc5ccccc5)c4[C@]2(CCN3C)CC1=O` (some centres not stated) showed an IC50 (MCF7) greater than 50 µM, an IC50 (K562) of 26 µM and an IC50 (MDA-MB-231) greater than 50 µM. For the same molecule, the IC50 [1] was greater than 50 µM, the IC50 (PANC-1) was greater than 50 µM and the IC50 (HepG2) was greater than 50 µM. It also gave an IC50 (A549) greater than 50 µM.
Molecule `COC1=CC2[C@@H]3Cc4c(Br)cc(OC)c(O)c4[C@]2(CCN3C)CC1=O` (some centres not stated) has an IC50 (MCF7) greater than 50 µM, an IC50 (K562) of 33 µM and an IC50 (MDA-MB-231) greater than 50 µM. It also gave an IC50 (PANC-1) greater than 50 µM, an IC50 (HepG2) greater than 50 µM and an IC50 (A549) greater than 50 µM.
Work on `COC1=CC2[C@@H]3Cc4ccc(OC)c(OC(=O)CCCCC(CCSCc5ccccc5)SCc5ccccc5)c4[C@]2(CCN3C)CC1=O` (some centres not stated) yielded an IC50 (MCF7) greater than 50 µM, an IC50 (K562) of 23.4 µM and an IC50 (MDA-MB-231) greater than 50 µM. For the same molecule, the IC50 [1] was greater than 50 µM, the IC50 (PANC-1) was greater than 50 µM and the IC50 (HepG2) was greater than 50 µM. The IC50 (A549) was greater than 50 µM.
For `COC1=CC2[C@@H]3Cc4c(Cl)cc(OC)c(OCCCOC(=O)CCCCC(CCSCc5ccccc5)SCc5ccccc5)c4[C@]2(CCN3C)CC1=O` (some centres not stated), the IC50 (MCF7) was greater than 50 µM, the IC50 (K562) was 27.4 µM and the IC50 (MDA-MB-231) was greater than 50 µM. The IC50 [1] was greater than 50 µM, the IC50 (PANC-1) was greater than 50 µM and the IC50 (HepG2) was greater than 50 µM. The IC50 (A549) was greater than 50 µM.
